Like-named read-outs stand apart in the source and are kept apart here.
Assays:
E. coli CN314 = assay: MIC determination of each drug alone; format: cell-based; details: Escherichia coli
Experimental: Microtiter dilutions were prepared using Wellcotest broth. Prior to synergy testing, MIC determinations were made for each compound individually against the test organism (E. coli CN314).

HIV [1] = assay: AZT/acyclovir combination, in vitro efficacy (protection) vs. HIV; format: cell-based
Experimental: Using a method analogous to that described in Example 79 of EP21758A, combinations of AZT and acyclovir (ACV) were tested for in vitro efficacy vs. HIV.

[2] = system: Friend Lenkemia Virus (FLV); assay: Anti-Friend Leukemia Virus plaque inhibition in FG-10 cells; format: cell-based
Experimental: FG-10 cells were seeded on a plate one day before they were infected with FLV. One hour after infecting, known concentrations of the test compounds or combinations were added. The plates were incubated for 3 days, the media replaced with fresh McCoy's 5A media and incubated another 3 days. […]

HIV [3] = assay: Reverse transcriptase activity in supernatant of HIV-infected PBMC, with multiple drug effect analysis; format: cell-based; details: for mean reverse transcriptase values: Experiment 2, Day 10
HIV [4] = assay: Virus yield of HIV-infected PBMC cultures; format: cell-based; details: Experiment 3, Day 13; AZT .04 µM alone
HIV [5] = assay: HIV p24 antigen by radioimmunoassay in HIV-infected PBMC cultures; format: cell-based; details: Experiment 4, Day 14
[6] = system: vaccinia, HSVI and varicella zoster virus (VZV); details: De Clerq et al, Biochem.Pharm. (1980) 29, 1849-1851; including DNA viruses; cited from earlier work
[7] = test drugs alone, E. coli CN314, read-out: MIC

COc1cc(Cc2cnc(N)nc2N)cc(OC)c1OC [Trimethoprim, 2,4-diamino-5-(3',4',5'-trimethoxybenzyl) pyrimidine]
MIC (E. coli CN314; CN314): 0.125 µg/mL

O=C(N[C@H](CO)[C@H](O)c1ccc([N+](=O)[O-])cc1)C(Cl)Cl [Chloramphenicol]
MIC (E. coli CN314; [7]): 3.1 µg/mL

Nc1nc2c(ncn2COCCO)c(=O)[nH]1 [ACV, 9-(2-hydroxyethoxymethyl) guanine, reference compound]
protection (HIV [1]; ACV alone, 16 µg/ml (the highest tested)): less than 30%
potentiates the antiviral activity of AZT (HIV [1]; ACV combined with AZT vs. HIV): about 3 fold

CC(=O)O[C@H]1C[C@@]2(C)[C@@H](C[C@@H](O)[C@H]3[C@@]4(C)CC[C@@H](O)[C@@H](C)[C@@H]4CC[C@@]32C)/C1=C(\CCC=C(C)C)C(=O)O [Fusidic acid]
MIC (E. coli CN314; [7]): 1000 µg/mL

CCC[C@@H]1C[C@@H](C(=O)N[C@@H]([C@H]2O[C@H](SC)[C@H](O)[C@@H](O)[C@H]2O)[C@H](C)Cl)N(C)C1 [Clindamycin]
MIC (E. coli CN314; [7]): 100 µg/mL

CO[C@H]1/C=C/O[C@@]2(C)Oc3c(C)c(O)c4c(O)c(c(/C=N/N5CCN(C)CC5)c(O)c4c3C2=O)NC(=O)/C(C)=C\C=C\[C@H](C)[C@H](O)[C@@H](C)[C@@H](O)[C@@H](C)[C@H](OC(C)=O)[C@@H]1C [Rifampicin]
MIC (E. coli CN314; [7]): 6.2 µg/mL

NC[C@H]1O[C@H](O[C@H]2[C@H](O)[C@@H](O[C@H]3O[C@H](CO)[C@@H](O)[C@H](N)[C@H]3O)[C@H](N)C[C@@H]2N)[C@H](N)C[C@@H]1O [Tobramycin]
MIC (E. coli CN314; [7]): 0.4 µg/mL

OCCN(CCO)c1nc(N2CCCCC2)c2nc(N(CCO)CCO)nc(N3CCCCC3)c2n1 [dipyridamole]
antiviral effect ([2]; dipyridamole alone, 10 µM): Neither dipyridamole (10 µM) nor dilazep (5 µM) alone had any observed antiviral effect

CC[C@H]1OC(=O)[C@H](C)[C@@H](O[C@H]2C[C@@](C)(OC)[C@@H](O)[C@H](C)O2)[C@H](C)[C@@H](O[C@@H]2O[C@H](C)C[C@H](N(C)C)[C@H]2O)[C@](C)(O)C[C@@H](C)C(=O)[C@H](C)[C@@H](O)[C@]1(C)O [Erthromycin]
MIC (E. coli CN314; [7]): 25 µg/mL

Cc1cc(C)nc(NS(=O)(=O)c2ccc(N)cc2)n1 [Sulphadimidine]
MIC (E. coli CN314; [7]): 32 µg/mL

Cc1cn([C@H]2C[C@H](N=[N+]=[N-])[C@@H](CO)O2)c(=O)[nH]c1=O [AZT]
EC50 ([2]; read-out: Azidothymidine ED50): 5 nM
protection (HIV [1]; AZT alone at 8µM): 100%
AZT (HIV [1]; Table 3: AZT concentration with ACV 0 µg/ml, effect level not stated (presumably full protection)): 8 µM
mean reverse transcriptase values (HIV [3]; AZT 0.01 µM alone): 159 cpm/10^6 cells x 10^3
mean reverse transcriptase values (HIV [3]; AZT 0.02 µM alone): 110 cpm/10^6 cells x 10^3
mean reverse transcriptase values (HIV [3]; AZT 0.04 µM alone): 71 cpm/10^6 cells x 10^3
mean reverse transcriptase values (HIV [3]; AZT 0.08 µM alone): 31 cpm/10^6 cells x 10^3
mean reverse transcriptase values (HIV [3]; AZT 0.16 µM alone): 7 cpm/10^6 cells x 10^3
mean RT values (HIV [3]; Experiment 3, Day 13, AZT 0.02 µM alone): 51 cpm/10^6 cells x 10^3
mean RT values (HIV [3]; Experiment 3, Day 13, AZT 0.04 µM alone): 10 cpm/10^6 cells x 10^3
mean RT values (HIV [3]; Experiment 3, Day 13, AZT 0.08 µM alone): 2 cpm/10^6 cells x 10^3
mean RT values (HIV [3]; Experiment 3, Day 13, AZT 0.16 µM alone): 5 cpm/10^6 cells x 10^3
mean RT values (HIV [3]; Experiment 4, Day 11, AZT 0.02 µM alone): 8 cpm/10^6 cells x 10^3
mean RT values (HIV [3]; Experiment 4, Day 11, AZT 0.04 µM alone): 4 cpm/10^6 cells x 10^3
mean RT values (HIV [3]; Experiment 4, Day 11, AZT 0.08 µM alone): 1 cpm/10^6 cells x 10^3
inhibition of viral replication (HIV [3]; experiment 1, all concentrations of AZT (3.2 µM and 5 twofold dilutions)): fully inhibitory
virus yield (HIV [4]): 10^3 TCID50 /ml
HIV p24 (HIV [5]; AZT 0.02 µM alone): 100-200 ng protein/ml
HIV p24 (HIV [5]; AZT 0.04 µM alone): 25-30 ng protein/ml
HIV p24 (HIV [5]; AZT 0.08 µM alone): 11.2 ng protein/ml
MIC (E. coli CN314; [7]): 1 µg/mL
activity against viruses [6]: no appreciable activity

COc1cc(C(=O)OCCCN2CCCN(CCCOC(=O)c3cc(OC)c(OC)c(OC)c3)CC2)cc(OC)c1OC [dilazep]
antiviral effect ([2]; dilazep alone, 5 µM): Neither dipyridamole (10 µM) nor dilazep (5 µM) alone had any observed antiviral effect

Reference: patent EP0594223B1, “Combination of therapeutic nucleosides and further therapeutic agents” (THE WELLCOME FOUNDATION LIMITED, priority 1985, dated 1987)
